Assay results as given in patent US20070172957A1, “Methods of identifying anti-inflammatory macrolides” (TAISHO PHARMACEUTICAL CO., LTD., priority 2004, published 2007).

System: genes predictive for the anti-inflammatory macrolide effect
Experiment: Genes statistically predictive of Clari response: differentially expressed with Clari but not the inactive macrolides MAA or Josa (Appendix E)
Format: cell-based
Source text: In the case of the above-mentioned (i) related to arachidonic acid biosynthesis, specifically, methods of the embodiment involve assaying whether a test macrolide alters biosynthesis of arachidonic acid, alters the expression or activities of enzymes involved in the biosynthesis or activation of arachidonic acid (e.g., arachidonic acid CoA synthetase, delta-6 desaturase, fatty acid elongase, and delta-5 desaturase, AA-related genes in Tables 2 and 3), or alters the expression of genes identified as predictive for the anti-inflammatory macrolide effect (Appendix E). Assays in which arachidonic acid or gene expression or enzymatic activity is detected can be carried out after contacting a cell with a test macrolide. Any cell line that secretes prostaglandin or produces arachidonic acid can be used. Epithelial and macrophages lines (e.g., A549 or THP-1) are suitable for this purpose; other cell lines can be identified by carrying out assays such as those described in the specific Examples, below. Alternatively, screening assays can be carried out after adding a test macrolide to an in vitro cell system (e.g., a cellular extract or liver microsome preparation) or an in vitro enzyme assay system.

Question: `CC[C@H]1OC(=O)[C@H](C)[C@@H](O[C@H]2C[C@@](C)(OC)[C@@H](O)[C@H](C)O2)[C@H](C)[C@@H](O[C@@H]2O[C@H](C)C[C@H](N(C)C)[C@H]2O)[C@](C)(OC)C[C@@H](C)C(=O)[C@H](C)[C@@H](O)[C@]1(C)O` [clarithromycin] was tested. Which “group mean, gene UNG” value (SpotID 48807, MAA and Josa vs. Clari) did it give?
Answer: 0.91

Question: And the “group mean, gene TUBB” value (SpotID 48914, MAA and Josa vs. Clari)?
Answer: 0.83

Question: And the “group mean, gene ITGAE” value (SpotID 48921, MAA and Josa vs. Clari)?
Answer: 0.99

Question: What about the “mean group, ITGAE” value (SpotID 48921, pooled group mean) of the same molecule?
Answer: 0.97

Question: What about the “group mean, gene P4HA2” value (SpotID 48971, MAA and Josa vs. Clari) of the same molecule?
Answer: 1.48

Question: And the “group mean, gene FADS1” value (SpotID 48998, MAA and Josa vs. Clari)?
Answer: 1.44

Question: What about the “group mean, gene PRSS25” value (SpotID 49006, MAA and Josa vs. Clari) of the same molecule?
Answer: 1.17

Question: What about the “mean group, PRSS25” value (SpotID 49006, pooled group mean) of the same molecule?
Answer: 1.14

Question: What about the “group mean, gene TM9SF2” value (SpotID 49007, MAA and Josa vs. Clari) of the same molecule?
Answer: 1.20

Question: And the “mean group, TM9SF2” value (SpotID 49007, pooled group mean)?
Answer: 1.18

Question: What about the “group mean, gene BBC3” value (SpotID 49013, MAA and Josa vs. Clari) of the same molecule?
Answer: 1.07

Question: And the “group mean, gene BNIP3L” value (SpotID 49028, MAA and Josa vs. Clari)?
Answer: 1.25

Question: What about the “mean group, BNIP3L” value (SpotID 49028, pooled group mean) of the same molecule?
Answer: 1.20

Question: What about the “group mean, gene GSK3B” value (SpotID 49032, MAA and Josa vs. Clari) of the same molecule?
Answer: 1.23

Question: And the “group mean, gene GLUD1” value (SpotID 49047, MAA and Josa vs. Clari)?
Answer: 0.95

Question: And the “group mean, gene SERPINB1” value (SpotID 49117, MAA and Josa vs. Clari)?
Answer: 0.84

Question: What about the “mean group, SERPINB1” value (SpotID 49117, pooled group mean) of the same molecule?
Answer: 0.88

Question: And the “group mean, gene PPIB” value (SpotID 49142, MAA and Josa vs. Clari)?
Answer: 1.18

Question: And the “group mean, gene PIK3R3” value (SpotID 49144, MAA and Josa vs. Clari)?
Answer: 1.15

Question: And the “group mean, gene ARTS-1” value (SpotID 49155, MAA and Josa vs. Clari)?
Answer: 0.81

Question: What about the “mean group, ARTS-1” value (SpotID 49155, pooled group mean) of the same molecule?
Answer: 0.86

Question: What about the “group mean, gene LGALS3” value (SpotID 49163, MAA and Josa vs. Clari) of the same molecule?
Answer: 1.23

Question: What about the “group mean, gene RRS1” value (SpotID 49169, MAA and Josa vs. Clari) of the same molecule?
Answer: 0.88

Question: And the “mean group, RRS1” value (SpotID 49169, pooled group mean)?
Answer: 0.93

Question: What about the “group mean, gene YAF2” value (SpotID 49172, MAA and Josa vs. Clari) of the same molecule?
Answer: 0.90

Question: And the “group mean, gene NEDD8” value (SpotID 49177, MAA and Josa vs. Clari)?
Answer: 1.06

Question: What about the “group mean, gene SRRM1” value (SpotID 49183, MAA and Josa vs. Clari) of the same molecule?
Answer: 0.81

Question: And the “group mean, gene FUCA1” value (SpotID 49197, MAA and Josa vs. Clari)?
Answer: 1.13

Question: What about the “group mean, gene APOE” value (SpotID 49233, MAA and Josa vs. Clari) of the same molecule?
Answer: 1.03

Question: What about the “mean group, APOE” value (SpotID 49233, pooled group mean) of the same molecule?
Answer: 1.01

Question: And the “mean group, TNFRSF10B” value (SpotID 49272, pooled group mean)?
Answer: 1.08

Question: And the “group mean, gene PPIB” value (SpotID 49314, MAA and Josa vs. Clari)?
Answer: 1.18

Question: And the “mean group, PPIB” value (SpotID 49314, pooled group mean)?
Answer: 1.16

Question: What about the “group mean, gene YWHAH” value (SpotID 49318, MAA and Josa vs. Clari) of the same molecule?
Answer: 0.95

Question: And the “mean group, YWHAH” value (SpotID 49318, pooled group mean)?
Answer: 0.97

Question: What about the “group mean, gene HNRPA3” value (SpotID 49347, MAA and Josa vs. Clari) of the same molecule?
Answer: 0.71

Question: And the “group mean, gene NCBP2” value (SpotID 49352, MAA and Josa vs. Clari)?
Answer: 1.03

Question: And the “group mean, gene TEB4” value (SpotID 49360, MAA and Josa vs. Clari)?
Answer: 0.88

Question: And the “mean group, TEB4” value (SpotID 49360, pooled group mean)?
Answer: 0.94

Question: What about the “group mean, gene ABCE1” value (SpotID 49364, MAA and Josa vs. Clari) of the same molecule?
Answer: 0.92

Question: And the “group mean, gene EIF3S9” value (SpotID 49373, MAA and Josa vs. Clari)?
Answer: 0.94

Question: And the “mean group, SpotID 49374” value (SpotID 49374 (gene symbol not given), pooled group mean)?
Answer: 1.03

Question: What about the “group mean, SpotID 49374 (gene symbol not given)” value (SpotID 49374, MAA and Josa vs. Clari) of the same molecule?
Answer: 1.04

Question: And the “group mean, gene SLC35A2” value (SpotID 49380, MAA and Josa vs. Clari)?
Answer: 1.11

Question: What about the “group mean, gene PPP3CB” value (SpotID 49391, MAA and Josa vs. Clari) of the same molecule?
Answer: 0.92

Question: What about the “group mean, gene TRRAP” value (SpotID 49435, MAA and Josa vs. Clari) of the same molecule?
Answer: 0.89

Question: And the “mean group, TRRAP” value (SpotID 49435, pooled group mean)?
Answer: 0.92

Question: What about the “group mean, gene SRC” value (SpotID 49446, MAA and Josa vs. Clari) of the same molecule?
Answer: 1.17

Question: And the “mean group, SRC” value (SpotID 49446, pooled group mean)?
Answer: 1.14

Question: And the “group mean, gene LOC55871” value (SpotID 49481, MAA and Josa vs. Clari)?
Answer: 1.05

Question: What about the “group mean, gene VTN” value (SpotID 49490, MAA and Josa vs. Clari) of the same molecule?
Answer: 0.91

Question: And the “mean group, VTN” value (SpotID 49490, pooled group mean)?
Answer: 0.94

Question: What about the “group mean, gene MATN2” value (SpotID 49511, MAA and Josa vs. Clari) of the same molecule?
Answer: 1.17

Question: What about the “group mean, gene GC20” value (SpotID 49512, MAA and Josa vs. Clari) of the same molecule?
Answer: 1.16

Question: And the “group mean, gene UBC” value (SpotID 49514, MAA and Josa vs. Clari)?
Answer: 1.11

Question: What about the “mean group, UBC” value (SpotID 49514, pooled group mean) of the same molecule?
Answer: 1.09

Question: What about the “group mean, gene AP1G2” value (SpotID 49524, MAA and Josa vs. Clari) of the same molecule?
Answer: 0.97

Question: What about the “mean group, AP1G2” value (SpotID 49524, pooled group mean) of the same molecule?
Answer: 0.92

Question: What about the “group mean, gene GNPI” value (SpotID 49546, MAA and Josa vs. Clari) of the same molecule?
Answer: 1.16

Question: And the “mean group, LOC54543” value (SpotID 49577, pooled group mean)?
Answer: 1.02

Question: And the “group mean, gene PSMC4” value (SpotID 49580, MAA and Josa vs. Clari)?
Answer: 0.99

Question: What about the “mean group, CSTF3” value (SpotID 49606, pooled group mean) of the same molecule?
Answer: 1.07

Question: What about the “group mean, gene POU4F1” value (SpotID 49608, MAA and Josa vs. Clari) of the same molecule?
Answer: 1.05

Question: And the “group mean, gene CLN2” value (SpotID 49618, MAA and Josa vs. Clari)?
Answer: 1.15

Question: What about the “mean group, CLN2” value (SpotID 49618, pooled group mean) of the same molecule?
Answer: 1.12

Question: And the “group mean, gene FGF2” value (SpotID 49649, MAA and Josa vs. Clari)?
Answer: 0.76

Question: What about the “group mean, gene MAP3K10” value (SpotID 49650, MAA and Josa vs. Clari) of the same molecule?
Answer: 1.16

Question: What about the “mean group, BTN3A2” value (SpotID 49673, pooled group mean) of the same molecule?
Answer: 1.11

Question: What about the “mean group, SERPINF1” value (SpotID 49679, pooled group mean) of the same molecule?
Answer: 1.09

Question: And the “group mean, gene GSK3B” value (SpotID 49688, MAA and Josa vs. Clari)?
Answer: 1.26

Question: And the “group mean, gene CAT” value (SpotID 49698, MAA and Josa vs. Clari)?
Answer: 1.08

Question: What about the “group mean, gene PCYT2” value (SpotID 49705, MAA and Josa vs. Clari) of the same molecule?
Answer: 1.24

Question: What about the “group mean, gene HNRPD” value (SpotID 49715, MAA and Josa vs. Clari) of the same molecule?
Answer: 0.88

Question: And the “group mean, gene GSK3B” value (SpotID 49735, MAA and Josa vs. Clari)?
Answer: 1.13

Question: What about the “group mean, gene CHAF1B” value (SpotID 49737, MAA and Josa vs. Clari) of the same molecule?
Answer: 0.84

Question: And the “mean group, CHAF1B” value (SpotID 49737, pooled group mean)?
Answer: 0.88

Question: And the “group mean, gene USF2” value (SpotID 49744, MAA and Josa vs. Clari)?
Answer: 1.07

Question: What about the “group mean, gene RPLP0” value (SpotID 49747, MAA and Josa vs. Clari) of the same molecule?
Answer: 1.09
